Experimental data: patent publication US20230312530A1, “SALT OF RHO-ASSOCIATED PROTEIN KINASE INHIBITOR, SOLID FORM OF THE SALT, PREPARATION METHOD FOR SAME, AND USES THEREOF” (BEIJING TIDE PHARMACEUTICAL CO., LTD., priority 2020, published 2023)

Assay: Pharmacokinetic test, single oral administration to beagle dogs
Type: in vivo
Details: dog, blood, 20 mg/kg, once, 20 mpk, vehicle 0.5% CMC-Na
Procedure: The crystalline form I of compound A monohydrochloride monohydrate and compound A (vehicles for both samples were 0.5% CMC-Na) were respectively orally administered once to two groups of beagle dogs at a dose of 20 mpk, and blood samples were collected before the administration (0 h) and at 0.25, 0.5, 1, 2, 4, 6, 8 and 24 hours after the administration. The samples were processed and subjected to a chromatographic analysis.

Structure (SMILES): Cn1c(C(=O)N2CC(F)(F)C2)cc2ccc(-c3nccc(Nc4ccc(-c5cn[nH]c5)cc4)n3)cc21 [Compound A, (6-(4-((4-(1H-pyrazol-4-yl)phenyl)amino)pyrimidin-2-yl)-1-methyl-1H-indol-2-yl)(3,3-difluoroazetidin-1-yl)methanone]
- Cmax: 147 ng/mL
- AUC(0-t) (sampling to 24 hours): 522 ng·h/mL
